Measurements taken from patent US6114335A, “Benzoylguanidine derivatives, process for their preparation their use in the preparation of medicines” (Boehringer Ingelheim KG, priority 1996, dated 2000).

Molecular target: T1, Na^+ /H^+ Exchanger (Homo sapiens, UniProt P19634)
T1 construct: Human Intestinal Cancer Cells (HT-29); endogenous in cells; host or cells: HT-29
Assay: Inhibition of the Na^+ /H^+ Exchanger in Human Intestinal Cancer Cells (HT-29)
Format: cell-based
Conditions: HT-29 cells; BCECF fluorescence, cytoplasmic pH; 4 minutes at 37° C., pH 7.0
Description: Inhibition of the Na^+ /H^+ Exchanger in Human Intestinal Cancer Cells (HT-29):
HT-29 cells were incubated in growth medium at 37° C., 5% CO2. After 3-5 days the growth medium was removed, the cells were washed and charged with 7.5 μM BCECF-AM (pH-sensitive fluorescent dye) at 37° C. without any CO2. After 30 minutes the cells were washed and acidified with the following medium: 70 mM choline chloride, 20 mM NH4 Cl, […], 1.8 mM CaC2, 5 mM glucose and 15 mM HEPES, pH 7.5.
After 6 minutes incubation at 37° C. without CO2, the cells were washed and incubated for 5 minutes with washing medium: 120 mM choline chloride, 5 mM KCl, 1 mM MgCl2, 1.8 mM CaCl2, 5 mM glucose and 15 mM MOPS, pH 7.0. The washing medium was removed and control medium was added with or without the test compound: 120 mM NaCl, 5 mM KCl, 1 mM MgCl2, 1.8 mM CaCl2, 5 mM glucose, 15 mM MOPS, pH 7.0.
The cells were incubated for 4 minutes at 37° C. without CO2 and measured by fluorimetry (CytoFluor 2350). The fluorescence of the dye BCECF was measured at the excitation wavelengths of 485 nm (pH sensitive) and 440 nm (non pH-sensitive) and at the emission wavelength of 530 nm. The cytoplasmic pH was calculated from the ratio of fluorescences at 485 and 440 nm. The fluorescence ratio was calibrated by measuring the fluorescence signal after equilibration of external and internal pH with nigericin.

T1 sequence (P19634 whole entry): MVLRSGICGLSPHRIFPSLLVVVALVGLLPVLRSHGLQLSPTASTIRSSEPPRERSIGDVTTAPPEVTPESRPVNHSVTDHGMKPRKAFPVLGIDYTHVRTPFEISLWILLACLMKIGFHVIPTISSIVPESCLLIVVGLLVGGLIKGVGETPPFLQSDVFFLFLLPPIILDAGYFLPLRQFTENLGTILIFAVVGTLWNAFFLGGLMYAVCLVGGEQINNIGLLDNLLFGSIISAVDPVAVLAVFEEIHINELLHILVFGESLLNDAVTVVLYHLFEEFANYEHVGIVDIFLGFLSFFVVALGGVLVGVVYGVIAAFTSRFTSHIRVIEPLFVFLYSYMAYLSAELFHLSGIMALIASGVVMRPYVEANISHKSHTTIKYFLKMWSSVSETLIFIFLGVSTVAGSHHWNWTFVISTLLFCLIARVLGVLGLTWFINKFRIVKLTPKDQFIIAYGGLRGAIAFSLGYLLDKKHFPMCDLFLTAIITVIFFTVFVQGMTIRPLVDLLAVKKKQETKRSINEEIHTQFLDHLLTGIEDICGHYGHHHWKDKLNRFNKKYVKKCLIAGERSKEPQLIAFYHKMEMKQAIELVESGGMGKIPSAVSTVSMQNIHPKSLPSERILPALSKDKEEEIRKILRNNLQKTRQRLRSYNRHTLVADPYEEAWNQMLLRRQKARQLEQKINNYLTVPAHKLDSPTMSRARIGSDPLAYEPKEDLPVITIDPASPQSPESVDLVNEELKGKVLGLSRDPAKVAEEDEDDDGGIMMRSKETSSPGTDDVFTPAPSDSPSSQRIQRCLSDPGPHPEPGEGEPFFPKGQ

Point of comparison: `CS(=O)(=O)c1cc(C(=O)N=C(N)N)ccc1N1CCN(C(=O)c2ccco2)CC1` [Example 3], IC50 29 nM. Against it:
- CN(C)CCN1CCN(c2ccc(C(=O)N=C(N)N)cc2S(C)(=O)=O)CC1 [Example 1] — 17-fold higher, 500 nM
- CS(=O)(=O)c1cc(C(=O)N=C(N)N)ccc1N1CCN(C(=O)c2cccs2)CC1 [Example 4] — within 1.5-fold, 31 nM
